Source: US5869023A, “Composition for MRI comprising both a positive and a negative contrast agent” (Nycomed Imaging AS, priority 1993, dated 1999)
Entries after “also recorded” stand apart in the source; their conditions may differ.

Tests used:
[1] = in vivo; cited from earlier work
Human blood samples = experiment: In vitro MR imaging of contrast agent doped human blood samples, viable vs freeze-injured cells (Example 2); type: cell-based
Protocol: Human blood samples with different hematocrit readings (Ht) of 27%, 45% and 69% were prepared to provide sample models for different levels of compartmentalization between intracellular and extracellular fluids. To initiate cellular level injury, samples with these Ht readings were frozen to effect cell membrane destruction. Finally a control sample of cell free plasma was also used.
To the test samples were added (a) a positive ECF contrast agent (GdDTPA-BMA at a dosage corresponding to 0.2 mmol Gd/kg); (b) a negative ECF contrast agent (DyDTPA-BMA at a dosage corresponding to 0.6 mmol Dy/kg); and (c) a positive ECF contrast agent and a negative ECF contrast agent (GdDTPA-BMA and DyDTPA-BMA at dosages corresponding to 0.2 mmol Gd/kg and 0.6 mmol Dy/kg).
These doped samples, and controls to which no contrast agent was added, were imaged together at ambient temperature in the head coil of a Siemens Magnetom operating at 0.5 T using T1 -weighted (TR/TE 500/30 ms), T2 -weighted (TR/TE 1500/90 ms) and proton density-weighted (TR/TE 1500/30 ms) echo sequences. The signal intensity for each contrast agent doped sample was normalized to the corresponding undoped sample and the results are set forth as ratios in FIGS. 1 to 3 hereto, squares, circles and diamonds representing the ratios for T1 -weighted, PD-weighted and T2 -weighted sequences respectively.

[2] = tested on: infarcted and non-ischemic myocardium; experiment: MR imaging of excised pig hearts, double contrast (Example 5); type: in vivo
Protocol: The total occlusion time was thus 6 hours.
Following sacrifice, the hearts were extirpated and rinsed in isotonic saline to remove remaining blood. The hearts were examined ex vivo at ambient temperature in the MR equipment and then cut into approximately 8 mm thick transverse slices and soaked for 10-20 minutes in a 1% aqueous solution of triphenyltetrazolium chloride (TTC) at 37° C. TTC stains non-ischemic myocardium brick red. The slices were inspected visually for unstained areas of infarction.
MR images were obtained in an identical manner to that described in Example 4.
In the transverse images, three ROI's were placed in infarcted myocardium. Four ROI's were placed in non-ischemic myocardium, two in the anterior wall and two in the posterior wall of the left ventricle. The mean signal intensity (S) was measured in each ROI. One ROI was placed anterior to the heart in an area free from visible artefacts, in order to measure the standard deviation (SD) of the background signal. These measurements were used to calculate the contrast (C) and contrast-to-noise (C/N) ratios between infarcted (inf) and non-ischemic (nonisch) myocardium using the formulae defined in Example 4.
In each heart, non-ischemic myocardium and infarction were represented by a mean value from measurements in two slices.

[3] = tested on: normal and reperfused infarcted myocardium; experiment: MR imaging and T2/T2* relaxation of rat hearts after single agents, protocol 2 (Example 6); type: in vivo, Sprague Dawley rats; details: for T2, infarct / T2, normal myocardium: four-echo T2-weighted, TR=4000 ms; for GRE signal intensity, infarct / GRE signal intensity, normal myocardium: gradient recalled echo images, Dy 1.0 mmol/kg n=11 or Gd 0.2 mmol/kg n=7; for T2*, infarct / T2*, normal myocardium: gradient-recalled images, TE=10, 15, 20 and 30 ms; for SE T1 signal intensity, infarct / SE T1 signal intensity, normal myocardium: spin echo T1 weighted, TR/TE=300/20 ms; for SE T2 signal intensity, infarct / SE T2 signal intensity, normal myocardium: spin echo T2 weighted, TR/TE=4000/80 ms
Source text: Images were acquired at room temprature using a GE CSI 2.0 T system. Each heart was positioned with its long axis parallel to the main magnetic field such that axial images would present short axis views of the heart. All images were obtained using a slice thickness of 2 mm, FOV of 30 mm, and a raw data matrix of 128×256 interpolated to 256×256 during reconstruction. TR/TE settings used for spin echo images are indicated below. Gradient echo images were obtained using a TR of 600 ms, with the radio frequency pulse power set very low such that no signal saturation was evident following multiple pulses and images would contain no T1 weighting.
Group 3 (n=11) received 1.0 mmol/kg DyDTPA-BMA, group 4 (n=7) received 0.2 mmol/kg of GdDTPA-BMA and group 5 (n=7) received no contrast agents. The imaging protocol for each heart consisted of spin echo T1-weighted (TR/TE=300/20 ms, NEX=4) and T2-weighted (TR/TE=4000/80 ms; NEX=2), a set of four-echo T2-weighted images (TR=4000 ms, TE=20, 40, 60 and 80 ms, NEX=2) for estimation of regional T2 values, and a set of gradient-recalled images (TE=10, 15, 20 and 30 ms, NEX=4) for estimation of region T2* values. TTC staining of the heart was performed to verify the presence of infarction.
Signal intensities were measured from ROIs selected over infarcted and uninfarcted myocardium. The same ROIs were applied to all images obained from each heart.
A series of gradient recalled and spin echo MR images were obtained to resolve the effects of GdDTPA-BMA on T2-weighted images and DyDTPA-BMA on T1-weighted images and also to more thoroughly characterize the differences in contrast media-induced T2 and T2* enhancement between infarcted and normal myocardium. Table III summarises the observed alterations in regional signal intensity and relaxation rates following administration of either GdDTPA-BMA or DyDTPA-BMA.

[4] = tested on: infarcted and non-ischemic myocardium; details: pig, in vivo
Protocol: (§1) Myocardial infarction was induced in 5 anaesthetized pigs of either sex (weight 25-30 kg) by ligating a diagonal branch of the left anterior descending artery (LAD), at thoracotomy. Microdialysate probes were inserted in ischemic and non-ischemic myocardium. The pigs were sacrificed 2 hours after administration of contrast media. 4 hour post occlusion Gd-DTPA-BMA (0.3 mmol/kg) and Dy-DTPA-BMA (1.0 mmol/kg) were simultaneously administered in vivo with an injection time of one minute. The total occlusion time was thus 6 hours.
The total amount of gadolinium and dysprosium in samples of infarcted and non-ischemic myocardium was quantified by ICP-AES.
Paired t-tests (two-tailed) were used to compare the gadolinium and dysprosium content, respectively, in infarcted and non-ischemic myocardium within the group. […] In addition, the extracellular concentrations of gadolinium and dysprosium were further compared with the content of gadolinium and dysprosium in tissue samples.

[5] = tested on: infarcted and non-ischemic myocardium; details: pig, in vivo; for time of early peak in dialysate: iv
Protocol: as §1
(§2) The microdialysate was collected every 10 minutes and measured for gadolinium and dysprosium using inductively coupled plasma atomic emission spectrometry (ICP-AES). The microdialysis equipment consisted of a CMA®/20 microdialysis probe with a 10 mm flexible membrane and a diameter of 0.5 mm (CMA AB, Stockholm, Sweden). […] The probe was perfused with a Krebs-Ringer phosphate buffer (pH 7.4) at a speed of 2 μl/min and a dead space, in the system, of 10 μl. […] One probe was inserted into the central part of the ischemic area and another probe was placed in non-ischemic myocardium in the lateral wall using the Seldinger technique to minimize mechanical injury to myocardium and probe membrane. A CMA® microdialysis pump (CMA 100) was used with two syringes to perfuse the probes.
(§3) In addition, gadolinium and dysprosium were determined in dialysates from five pigs by ICP-AES. Twenty μl portions were sampled in plastic tubes and kept frozen until analysis. The samples were diluted to 5.02 ml with ultra-pure water. To enhance the sensitivity of measurements, an ultrasonic nebulizer was used instead of the pneumatic one. The limit of detection for the method is about 2 μg/l for both gadolinium and dysprosium in the measuring solution. This means that about 3 μmol/l can be detected in the dialysates.

[6] = tested on: normal and infarcted myocardium; details: rat, in vivo; for concentration ratio, reperfused infarcted vs normal myocardium: 15 min
Protocol: Thirty seven Sprague Dawley rats (200-400 gm) were anaesthetized by an intraperitoneal injection of sodium pentobarbital (50 mg/kg body weight). After tracheostomy, animals were ventilated using a small animal respirator. The heart was exposed following a left thoracotomy through the 4th intercostal space and a surgical suture was used to ligate the anterior branch of the left coronary artery near its origin beneath the left atrial appendage using a snare ligature. The presence of occlusion was visually confirmed by noting the development of myocardial cyanosis. After 1 hour occlusion, reperfusion was initiated by loosening the snare ligature. A catheter was placed into a femoral vein to inject contrast media. All animals which received contrast agent were administered doses at 45 minutes of reflow. After 1 hour reperfusion, each heart was excised and rinsed in 0.9% saline, patted dry with gauze, and a cotton swab was inserted into the left ventricular cavity to expand the chamber. Each heart was wrapped in clear plastic wrap to minimise dehydration during imaging.
To group 1 rats (n=9) were administered 0.2 mmol/kg of GdDTPA-BMA immediately followed by 1.0 mmol/kg of DyDTPA-BMA. Group 2 (n=7) received no contrast agents. Two spin-echo images were obtained from the midventricle of each heart, a T1-weighted image with TR/TE=300/20 and NEX=4, and T2-weighted image with TR/TE=3000/60 and NEX=2. After imaging, each heart was sliced at the midventricular level and soaked in a 2% solution of TTC at 37° C. for 15 minutes to define myocardial infarction.
Samples of normal and infarcted myocardium were retained for analysis of Gd and Dy content by means of ICP-MS.

[7] = tested on: infarcted and nonischemic myocardium; details: cited from earlier work; for distribution / enhancement in 6-hour-old myocardial infarction: porcine model
myocardial infarction = details: first positive, second negative agent, sequential; cited from earlier work
[8] = tested on: infarcted and non-ischemic myocardium; experiment: Microdialysis kinetics of Gd and Dy in extracellular space of pig myocardium (Example 5); details: for concentration course in dialysate / duration of plateau in dialysate: infarcted myocardium; for concentration in dialysate after early peak: non-ischemic myocardium
Protocol: as §1, §2, §3

[9] = tested on: infarcted and nonischemic myocardium; experiment: Ex vivo MR imaging of pig hearts, myocardial infarction model (Example 4); type: in vivo; details: Dy DTPA-BMA 1.0 mmol/kg plus Gd DTPA-BMA 0.3 mmol/kg
Protocol: A control group received no contrast agent.
Following sacrifice, the hearts were extirpated and rinsed in isotonic saline to remove remaining blood. The hearts were examined ex vivo at ambient temperature in the MR equipment and then cut into thin transverse slices and soaked for about 20 minutes in a 1% aqueous solution of triphenyltetrazolium chloride (TTC) at 37° C. The slices were then visually inspected for unstained areas corresponding to infarction.
MR examination was performed in a superconductive whole body equipment (Siemens Magnetom) operating at 0.5 T. The hearts were investigated with saggital and transverse multi-slice spin-echo images with TR/TE of 500/30 (two excitations), 1500/30,70 and 1500/30,120 (single excitations) using a saddle-shaped coil with a diameter of 13 cm. The following parameters were used: Slice thickness 7 mm. Interslice gap 20%. Acquisition matrix 256×256 giving a resolution of 0.7×0.7 mm.
In the transverse images regions of interest (ROI's) were placed in infarcted and nonischemic myocardium, in a corn oil phantom and in front of the heart (noise). The mean signal intensity (SI) was measured in each ROI.
In addition, the SD was measured in the noise. […]

For CNC[C@H](O)[C@@H](O)[C@H](O)[C@H](O)CO.CNC[C@H](O)[C@@H](O)[C@H](O)[C@H](O)CO.O=C([O-])CN(CCN(CC(=O)[O-])CC(=O)O)CCN(CC(=O)[O-])CC(=O)O.[Gd+3] [Gd DTPA-dimeglumine], the “distribution after intravenous administration” value [1] is listed as “rapidly distributes throughout the extracellular fluid (ECF)”.

With CNC(=O)CN(CCN(CCN(CC(=O)[O-])CC(=O)NC)CC(=O)[O-])CC(=O)[O-].[Gd+3] [GdDTPA-BMA, reference compound] the “signal intensity ratio (doped/undoped), T1-weighted” value (Human blood samples; T1-weighted TR/TE 500/30 ms, 0.5 T) was “increased signal intensity effect”, the “signal intensity ratio (doped/undoped), other sequences” value (Human blood samples; T2-weighted (1500/90) and proton density-weighted (1500/30)) was “barely noticed in the other sequences” and the “discrimination between "viable" and "non-viable" samples” value (Human blood samples; all sequences) was “no significant discrimination”. The “infarction signal / visualization” value ([2]; T1- and proton density-weighted, vs no contrast agent or Dy-DTPA-BMA only) was “enhanced infarction signal in the T1- and proton density-weighted sequences, resulting in improved infarction visualization”, the “differential enhancement of reperfused infarction, T1-weighted” value ([3]; T1-weighted images) was “significant differential enhancement” and the “enhancement of infarcted region, single agent vs both agents” value ([3]; T1-weighted images) was “significantly less than that noted when both agents were present”. For the same molecule, the “delineation of infarcted region, T2-weighted” value ([3]; T2-weighted images) was “delineated by both agents”, the “signal intensity of infarcted region, T2-weighted” value ([3]; T2-weighted images) was “significantly reduced compared to hearts with no contrast” and the “signal intensity of normal region, T2-weighted” value ([3]; T2-weighted images) was “not different from that of hearts with no contrast”. The “T2, infarct” value [3] was 31.1 ± 1.2 ms, the “T2, normal myocardium” value [3] was 34.7 ± 0.7 ms and the “GRE signal intensity, infarct” value [3] was 185 ± 49. The “GRE signal intensity, normal myocardium” value [3] was 200 ± 40, the “T2*, infarct” value [3] was 13.2 ± 1.5 ms and the “T2*, normal myocardium” value [3] was 17.1 ± 2.2 ms. The “SE T1 signal intensity, infarct” value [3] was 350 ± 34, the “SE T1 signal intensity, normal myocardium” value [3] was 184 ± 21 and the “SE T2 signal intensity, infarct” value [3] was 35 ± 7. For the same molecule, the “SE T2 signal intensity, normal myocardium” value [3] was 42 ± 4, the “concentration in infarcted vs non-ischemic myocardium” value [4] was “more than threefold higher concentration” and the “time to plateau concentration in dialysate” value [5] was 20 to 30 min. The “time of early peak in dialysate” value [5] was at most 10 min, the “metal content in infarcted region vs normal myocardium” value [6] was “commensurably greater content of gadolinium in that region than in normal myocardium” and the “concentration ratio, reperfused infarcted vs normal myocardium” value [6] was “approximately 2.5 fold”. The “distribution / enhancement in 6-hour-old myocardial infarction” value [7] was “infarct accumulation”, the “distribution in infarcted heart” value (myocardial infarction) was “distributed to the infarcted area of the heart” and the “concentration course in dialysate” value [8] was “increased gradually”. For the same molecule, the “duration of plateau in dialysate” value [8] was 60 min and the “concentration in dialysate after early peak” value [8] was “diminished with time”.

For O=C([O-])CN(CCN(CC(=O)[O-])CC(=O)O)CCN(CC(=O)[O-])CC(=O)O.[Gd+3] [Gd-DTPA, reference compound], the “distribution / enhancement in 6-hour-old myocardial infarction” value [7] is listed as “infarct accumulation”.

In the case of CNC(=O)CN(CCN(CCN(CC(=O)[O-])CC(=O)NC)CC(=O)[O-])CC(=O)[O-].[Dy+3] [DyDTPA-BMA], the “signal intensity, "viable" sample” value (Human blood samples; all sequences, most markedly T2-weighted) is reported as “signal intensity fell with increasing Ht reading”, the “signal intensity, "non-viable" samples” value (Human blood samples; frozen samples, all sequences) is reported as “no effect” and the “effect of negative agent on T1 enhancing effect of positive agent in infarcted area” value [9] is reported as “does not cancel the T1 enhancing effect of the positive agent in the infarcted area”. The “counteraction of Gd-DTPA-BMA induced signal enhancement by Dy-DTPA-BMA” value ([2]; all investigated sequences, infarcted tissue) was “not significantly counteracted; also recorded: did not counteract the Gd-DTPA-BMA induced enhancement of the infarcted tissue”, the “susceptibility induced (Dy induced) signal intensity reduction in infarctions” value ([2]; infarctions) was “lack of detectable susceptibility induced (i.e. Dy induced) signal intensity reduction effects in the infarctions” and the “differential enhancement of reperfused infarction, T1-weighted” value ([3]; T1-weighted images) was “significant differential enhancement”. The “contrast between infarcted and normal region vs both agents” value ([3]; T2-weighted images) was “greater contrast between the two regions than was noted when both agents were administered”, the “delineation of infarcted region, T2-weighted” value ([3]; T2-weighted images) was “delineated by both agents” and the “signal intensity of infarcted region, T2-weighted” value ([3]; T2-weighted images) was “much less reduction in signal of the infarcted region”. The “signal intensity of normal region, T2-weighted” value ([3]; T2-weighted images) was “great suppression of normal myocardium signal”, the “T2, infarct” value [3] was 35.8 ± 1.0 ms and the “T2, normal myocardium” value [3] was 25.9 ± 0.6 ms. The “GRE signal intensity, infarct” value [3] was 191 ± 34, the “GRE signal intensity, normal myocardium” value [3] was 105 ± 18 and the “T2*, infarct” value [3] was 17.7 ± 1.2 ms. For the same molecule, the “T2*, normal myocardium” value [3] was 9.4 ± 0.5 ms, the “SE T1 signal intensity, infarct” value [3] was 141 ± 14 and the “SE T1 signal intensity, normal myocardium” value [3] was 88 ± 7. For the same molecule, the “SE T2 signal intensity, infarct” value [3] was 42 ± 4, the “SE T2 signal intensity, normal myocardium” value [3] was 12 ± 1 and the “time to plateau concentration in dialysate” value [5] was 20 to 30 min. The “time of early peak in dialysate” value [5] was at most 10 min, the “metal content in infarcted region vs normal myocardium” value [6] was “greater amount of dysprosium in the infarcted zone” and the “concentration ratio, reperfused infarcted vs normal myocardium” value [6] was “approximately 2.5 fold”. For the same molecule, the “infarct detection / conspicuity” value ([7]; T1- and T2-weighted sequences) was “improves the infarct detection due to susceptibility-induced loss of signal intensity in nonischemic myocardium”, the “signal effect of accumulation in infarcted myocardium” value ([7]; infarcted myocardium) was “does not seem to result in signal loss but maintains a persistent intensity relative to the depleted signal in normal myocardium” and the “distribution in infarcted heart” value (myocardial infarction) was “allowed essentially only to distribute to the normal tissue resulting in the generation of enhanced contrast between normal and infarcted tissue”. The “concentration course in dialysate” value [8] was “increased gradually”, the “duration of plateau in dialysate” value [8] was 60 min and the “concentration in dialysate after early peak” value [8] was “diminished with time”.
